Measurements: US9617256B2 (priority 2007, dated 2017)
≈ marks a conversion by molar mass, not a printed value.

Legend:
AECO001 (ATCC25922) = test: MIC broth microdilution, AECO001; type: cell-based, E. coli; conditions: Escherichia coli, ATCC25922, read-out: MIC AECO001
Summary of the method: (§1)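 Growth inhibition was scored by CLSI broth microdilution using cation-adjusted Mueller-Hinton broth and a final inoculum between 3×10^5 and 7×10^5 CFU/mL, incubated 18-24 hours at 35° C.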

[1] = system: AECO063 (ATCC25922 bearing an acrAB mutation); test: microbe, parasite or virus in culture; type: cell-based, E. coli; conditions: Escherichia coli, ATCC25922, read-out: MIC AECO063
Summary of the method: as §1

APAE001 (ATCC27853) = test: MIC broth microdilution, APAE001; type: cell-based, P. aeruginosa; conditions: Pseudomonas aeruginosa, ATCC27853, read-out: MIC APAE001, APAE001 is ATCC27853
Summary of the method: as §1

[2] = system: APAE006 (strain of P. aeruginosa in which all efflux pumps are inactivated); test: microbe, parasite or virus in culture; type: cell-based; conditions: Pseudomonas aeruginosa, read-out: MIC APAE006, P. aeruginosa, all efflux pumps inactivated
Summary of the method: (§2)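 Inocula prepared from 0.5 McFarland suspensions (final 3×10^5–7×10^5 CFU/mL) were added to 2-fold drug dilution series in cation-adjusted Mueller-Hinton broth. Plates stood 18-24 hours at 35° C. under ambient air.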

[3] = system: APAE006 in the presence of 8 micrograms per milliliter of polymyxin B nonapeptide; type: cell-based, P. aeruginosa; conditions: in the presence of 8 micrograms per milliliter of polymyxin B nonapeptide
Summary of the method: as §2

[4] = system: AABA1060 (clinical isolate of Acinetobacter baumannii); test: MIC broth microdilution, AABA1060; type: cell-based; conditions: Acinetobacter baumannii, read-out: MIC AABA1060
Summary of the method: as §1

[5] = system: ASAU001 (laboratory strain of S. aureus, ATCC29213); test: MIC broth microdilution, ASAU001; type: cell-based; conditions: Staphylococcus aureus, ATCC29213, read-out: MIC ASAU001
Summary of the method: as §1

AECO001 HSA AGP = test: MIC broth microdilution, AECO001 HSA AGP; type: cell-based, E. coli; conditions: Escherichia coli
Summary of the method: as §1

Structure (SMILES) | MIC (AECO001 (ATCC25922)) [µg/mL] | MIC [1] [µg/mL] | MIC (APAE001 (ATCC27853)) [µg/mL] | MIC [2] [µg/mL] | MIC APAE006 + PMBN [3] | MIC [4] [µg/mL] | MIC [5] [µg/mL] | MIC (AECO001 HSA AGP) [µg/mL]
C[C@@H](N)[C@H](NC(=O)c1ccc(C#CC#Cc2ccc(CNC3CC3)cc2)cc1)C(=O)NO [Example 86-3] | < 2 | < 2 | < 2 | < 2 | A (MIC's of 2.0 μg/mL or less = A) | 2 to 16 (≈ 4.65 to 37.2 µM) | 16 to 64 (≈ 37.2 to 149 µM) | < 2
C[C@@H](O)[C@H](NC(=O)c1ccc(C#CC#Cc2ccc(CNC3CC3)cc2)cc1)C(=O)NO [Example 87-2] | < 2 | < 2 | < 2 | < 2 | A (MIC's of 2.0 μg/mL or less = A) | 16 to 64 (≈ 37.1 to 148 µM) | 16 to 64 (≈ 37.1 to 148 µM) | < 2
CC(C)(O)[C@H](NC(=O)c1ccc(C#CC#Cc2ccc(CNC3CC3)cc2)cc1)C(=O)NO [Example 87-3] | < 2 | < 2 | < 2 | < 2 | A (MIC's of 2.0 μg/mL or less = A) | < 2 | 16 to 64 (≈ 35.9 to 144 µM) | < 2
C[C@@H](N)[C@H](NC(=O)c1ccc(C#CC#Cc2cncn2C)cc1)C(=O)NO [Example 88-1, N-((1S,2R)-2-Amino-1-hydroxycarbamoyl-propyl)-4-[4-(3-methyl-3H-imidazol-4-yl)-buta-1,3-diynyl]-benzamide] | < 2 | < 2 | 2 to 16 (≈ 5.47 to 43.8 µM) | < 2 | A (MIC's of 2.0 μg/mL or less = A) | 16 to 64 (≈ 43.8 to 175 µM) | 16 to 64 (≈ 43.8 to 175 µM) | 2 to 16 (≈ 5.47 to 43.8 µM)
C[C@@H](N)[C@H](NC(=O)c1ccc(C#CC#Cc2ccncc2)cc1)C(=O)NO [Example 88-2] | < 2 | < 2 | < 2 | < 2 | A (MIC's of 2.0 μg/mL or less = A) | 2 to 16 (≈ 5.52 to 44.2 µM) | 2 to 16 (≈ 5.52 to 44.2 µM) | 2 to 16 (≈ 5.52 to 44.2 µM)
C[C@@H](N)[C@H](NC(=O)c1ccc(C#CC#Cc2cccnc2)cc1)C(=O)NO [Example 88-3] | < 2 | < 2 | < 2 | < 2 | A (MIC's of 2.0 μg/mL or less = A) | 2 to 16 (≈ 5.52 to 44.2 µM) | > 64 | 2 to 16 (≈ 5.52 to 44.2 µM)
C[C@@H](N)[C@H](NC(=O)c1ccc(C#CC#Cc2ccccn2)cc1)C(=O)NO [Example 88-4] | 2 to 16 (≈ 5.52 to 44.2 µM) | < 2 | < 2 | < 2 | A (MIC's of 2.0 μg/mL or less = A) | 16 to 64 (≈ 44.2 to 177 µM) | > 64 | 16 to 64 (≈ 44.2 to 177 µM)
C[C@@H](O)[C@H](NC(=O)c1ccc(C#CC#Cc2cncn2C)cc1)C(=O)NO [Example 88-9] | < 2 | < 2 | 2 to 16 (≈ 5.46 to 43.7 µM) | < 2 | A (MIC's of 2.0 μg/mL or less = A) | 16 to 64 (≈ 43.7 to 175 µM) | 16 to 64 (≈ 43.7 to 175 µM) | 2 to 16 (≈ 5.46 to 43.7 µM)
Cn1cncc1C#CC#Cc1ccc(C(=O)N[C@H](C(=O)NO)C(C)(C)O)cc1 [Example 88-10] | < 2 | < 2 | 2 to 16 (≈ 5.26 to 42.1 µM) | < 2 | A (MIC's of 2.0 μg/mL or less = A) | 2 to 16 (≈ 5.26 to 42.1 µM) | 16 to 64 (≈ 42.1 to 168 µM) | 2 to 16 (≈ 5.26 to 42.1 µM)
C[C@@H](N)[C@H](NC(=O)c1ccc(C#CC#CC2CC2)cc1)C(=O)NO [Example 91-2] | < 2 | < 2 | < 2 | < 2 | A (MIC's of 2.0 μg/mL or less = A) | < 2 | 2 to 16 (≈ 6.15 to 49.2 µM) | 2 to 16 (≈ 6.15 to 49.2 µM)
C[C@@H](N)[C@H](NC(=O)c1ccc(C#CC#CC2CCCC2)cc1)C(=O)NO [Example 91-3] | < 2 | < 2 | < 2 | < 2 | A (MIC's of 2.0 μg/mL or less = A) | 2 to 16 (≈ 5.66 to 45.3 µM) | 2 to 16 (≈ 5.66 to 45.3 µM) | 2 to 16 (≈ 5.66 to 45.3 µM)
C[C@@H](N)[C@H](NC(=O)c1ccc(C#CC#CC2CCCCC2)cc1)C(=O)NO [Example 91-4] | < 2 | < 2 | 2 to 16 (≈ 5.44 to 43.5 µM) | < 2 | A (MIC's of 2.0 μg/mL or less = A) | 2 to 16 (≈ 5.44 to 43.5 µM) | 2 to 16 (≈ 5.44 to 43.5 µM) | 2 to 16 (≈ 5.44 to 43.5 µM)
C[C@@H](O)[C@H](NC(=O)c1ccc(C#C/C=C/c2ccc(CN3CCOCC3)cc2)cc1)C(=O)NO [Example 96-1, N-((1S,2R)-2-Hydroxy-1-hydroxycarbamoyl-propyl)-4-[(E)-4-(4-morpholin-4-ylmethyl-phenyl)-but-3-en-1-ynyl]-benzamide] | < 2 | < 2 | 2 to 16 (≈ 4.31 to 34.5 µM) | < 2 | A (MIC's of 2.0 μg/mL or less = A) | 2 to 16 (≈ 4.31 to 34.5 µM) | > 64 | < 2
C[C@H](O)[C@H](NC(=O)c1ccc(C#C/C=C/c2ccc(CN3CCOCC3)cc2)cc1)C(=O)NO [Example 96-2] | < 2 | < 2 | 2 to 16 (≈ 4.31 to 34.5 µM) | < 2 | A (MIC's of 2.0 μg/mL or less = A) | 2 to 16 (≈ 4.31 to 34.5 µM) | 16 to 64 (≈ 34.5 to 138 µM) | 2 to 16 (≈ 4.31 to 34.5 µM)
CC(C)[C@H](NC(=O)c1ccc(C#C/C=C/c2ccc(CN3CCOCC3)cc2)cc1)C(=O)NO [Example 96-3] | < 2 | < 2 | 2 to 16 (≈ 4.33 to 34.7 µM) | < 2 | A (MIC's of 2.0 μg/mL or less = A) | 2 to 16 (≈ 4.33 to 34.7 µM) | 16 to 64 (≈ 34.7 to 139 µM) | 2 to 16 (≈ 4.33 to 34.7 µM)
C[C@@H](N)[C@H](NC(=O)c1ccc(C#C/C=C/c2ccc(CN3CCOCC3)cc2)cc1)C(=O)NO [Example 96-4] | < 2 | < 2 | 2 to 16 (≈ 4.32 to 34.6 µM) | < 2 | A (MIC's of 2.0 μg/mL or less = A) | 2 to 16 (≈ 4.32 to 34.6 µM) | > 64 | 2 to 16 (≈ 4.32 to 34.6 µM)
CO[C@H](C)[C@H](NC(=O)c1ccc(C#C/C=C/c2ccc(CN3CCOCC3)cc2)cc1)C(=O)NO [Example 97-1, N-((1S,2R)-1-Hydroxycarbamoyl-2-methoxy-propyl)-4-[(E)-4-(4-morpholin-4-ylmethyl-phenyl)-but-3-en-1-ynyl]-benzamide] | < 2 | < 2 | 2 to 16 (≈ 4.19 to 33.5 µM) | < 2 | A (MIC's of 2.0 μg/mL or less = A) | 2 to 16 (≈ 4.19 to 33.5 µM) | 16 to 64 (≈ 33.5 to 134 µM) | < 2
NC[C@H](NC(=O)c1ccc(C#C/C=C/c2ccc(CN3CCOCC3)cc2)cc1)C(=O)NO [Example 98-1, N—((S)-2-amino-1-hydroxycarbamoyl-ethyl)-4-[(E)-4-(4-morpholin-4-ylmethyl-phenyl)-but-3-en-1-ynyl]-benzamide] | < 2 | < 2 | < 2 | < 2 | A (MIC's of 2.0 μg/mL or less = A) | 16 to 64 (≈ 35.7 to 143 µM) | 16 to 64 (≈ 35.7 to 143 µM) | < 2
CN(C)CC(=O)NC[C@H](NC(=O)c1ccc(C#C/C=C/c2ccc(CN3CCOCC3)cc2)cc1)C(=O)NO [Example 98-2, N—[(S)-2-(2-dimethylamino-acetylamino)-1-hydroxycarbamoyl-ethyl]-4-[(E)-4-(4-morpholin-4-ylmethyl-phenyl)-but-3-en-1-ynyl]-benzamide] | < 2 | < 2 | 2 to 16 (≈ 3.75 to 30 µM) | < 2 | A (MIC's of 2.0 μg/mL or less = A) | 16 to 64 (≈ 30 to 120 µM) | 16 to 64 (≈ 30 to 120 µM) | 2 to 16 (≈ 3.75 to 30 µM)
CC(=O)NC[C@H](NC(=O)c1ccc(C#C/C=C/c2ccc(CN3CCOCC3)cc2)cc1)C(=O)NO [Example 98-3, N—((S)-2-acetylamino-1-hydroxycarbamoyl-ethyl)-4-[(E)-4-(4-morpholin-4-ylmethyl-phenyl)-but-3-en-1-ynyl]-benzamide] | < 2 | < 2 | 2 to 16 (≈ 4.08 to 32.6 µM) | < 2 | A (MIC's of 2.0 μg/mL or less = A) | 16 to 64 (≈ 32.6 to 130 µM) | > 64 | < 2
CNC[C@H](NC(=O)c1ccc(C#C/C=C/c2ccc(CN3CCOCC3)cc2)cc1)C(=O)NO [Example 99-1] | < 2 | < 2 | 2 to 16 (≈ 4.32 to 34.6 µM) | < 2 | A (MIC's of 2.0 μg/mL or less = A) | 16 to 64 (≈ 34.6 to 138 µM) | 16 to 64 (≈ 34.6 to 138 µM) | 2 to 16 (≈ 4.32 to 34.6 µM)
O=C(CNC1CC1)NC[C@H](NC(=O)c1ccc(C#C/C=C/c2ccc(CN3CCOCC3)cc2)cc1)C(=O)NO [Example 100-1, N—[(S)-2-(2-Cyclopropylamino-acetylamino)-1-hydroxycarbamoyl-ethyl]-4-[(E)-4-(4-morpholin-4-ylmethyl-phenyl)-but-3-en-1-ynyl]-benzamide] | < 2 | < 2 | 2 to 16 (≈ 3.67 to 29.3 µM) | < 2 | A (MIC's of 2.0 μg/mL or less = A) | 16 to 64 (≈ 29.3 to 117 µM) | 16 to 64 (≈ 29.3 to 117 µM) | 2 to 16 (≈ 3.67 to 29.3 µM)
